Laboratory results taken from ChEMBL document CHEMBL1145511, “Comparative activities of daptomycin, linezolid, and tigecycline against catheter-related methicillin-resistant Staphylococcus bacteremic isolates embedded in biofilm” (2007).
In brackets after ≈: the same amount, converted by molar mass. Activity calls are given as the source filed them. No cut-off for these calls is given here.

Legend:
[1] = test system: Staphylococcus aureus; test: Antibacterial activity against methicillin-resistant Staphylococcus aureus 4913 at 4 hrs daily exposure for 5 days by broth microdilution method; format: functional
[2] = test system: Staphylococcus aureus; test: Antibacterial activity against methicillin-resistant Staphylococcus aureus 4930 at 4 hrs daily exposure for 5 days by broth microdilution method; format: functional
[3] = test system: Staphylococcus aureus; test: Antibacterial activity against methicillin-resistant Staphylococcus aureus 5098 at 4 hrs daily exposure for 5 days by broth microdilution method; format: functional
[4] = test system: Staphylococcus aureus; test: Antibacterial activity against methicillin-resistant Staphylococcus aureus 5004 at 4 hrs daily exposure for 5 days by broth microdilution method; format: functional
[5] = test system: Staphylococcus aureus; test: Antibacterial activity against methicillin-resistant Staphylococcus aureus at 4 hrs daily exposure for 5 day; format: functional, organism-based
[6] = test system: Staphylococcus aureus; test: Antibacterial activity against methicillin-resistant Staphylococcus aureus 4803 at 4 hrs daily exposure for 1 day by broth microdilution method; format: functional
[7] = test system: Staphylococcus aureus; test: Antibacterial activity against methicillin-resistant Staphylococcus aureus 4913 at 4 hrs daily exposure for 1 day by broth microdilution method; format: functional
[8] = test system: Staphylococcus aureus; test: Antibacterial activity against methicillin-resistant Staphylococcus aureus 4930 at 4 hrs daily exposure for 1 day by broth microdilution method; format: functional
[9] = test system: Staphylococcus aureus; test: Antibacterial activity against methicillin-resistant Staphylococcus aureus 5098 at 4 hrs daily exposure for 1 day by broth microdilution method; format: functional
[10] = test system: Staphylococcus aureus; test: Antibacterial activity against methicillin-resistant Staphylococcus aureus 5004 at 4 hrs daily exposure for 1 day by broth microdilution method; format: functional
[11] = test system: Staphylococcus aureus; test: Antibacterial activity against methicillin-resistant Staphylococcus aureus 859 at 4 hrs daily exposure for 1 day by broth microdilution method; format: functional
[12] = test system: Staphylococcus aureus; test: Antibacterial activity against methicillin-resistant Staphylococcus aureus 4875 at 4 hrs daily exposure for 1 day by broth microdilution method; format: functional
[13] = test system: Staphylococcus aureus; test: Antibacterial activity against methicillin-resistant Staphylococcus aureus 4342 at 4 hrs daily exposure for 1 day by broth microdilution method; format: functional
[14] = test system: Staphylococcus aureus; test: Antibacterial activity against methicillin-resistant Staphylococcus aureus 293 at 4 hrs daily exposure for 1 day by broth microdilution method; format: functional
[15] = test system: Staphylococcus aureus; test: Antibacterial activity against methicillin-resistant Staphylococcus aureus 789 at 4 hrs daily exposure for 1 day by broth microdilution method; format: functional
[16] = test system: Staphylococcus aureus; test: Antibacterial activity against methicillin-resistant Staphylococcus aureus 4803 at 4 hrs daily exposure for 5 days by broth microdilution method; format: functional
[17] = test system: Staphylococcus aureus; test: Antibacterial activity against methicillin-resistant Staphylococcus aureus 859 at 4 hrs daily exposure for 5 days by broth microdilution method; format: functional
[18] = test system: Staphylococcus aureus; test: Antibacterial activity against methicillin-resistant Staphylococcus aureus 4875 at 4 hrs daily exposure for 5 days by broth microdilution method; format: functional
[19] = test system: Staphylococcus aureus; test: Antibacterial activity against methicillin-resistant Staphylococcus aureus 4342 at 4 hrs daily exposure for 5 days by broth microdilution method; format: functional
[20] = test system: Staphylococcus aureus; test: Antibacterial activity against methicillin-resistant Staphylococcus aureus 293 at 4 hrs daily exposure for 5 days by broth microdilution method; format: functional
[21] = test system: Staphylococcus aureus; test: Antibacterial activity against methicillin-resistant Staphylococcus aureus 789 at 4 hrs daily exposure for 5 days by broth microdilution method; format: functional, organism-based
[22] = test system: Staphylococcus aureus; test: Antibacterial activity against methicillin-resistant Staphylococcus aureus after 24 hrs by silicone disk biofilm colonization method; format: functional, organism-based
[23] = test system: Staphylococcus aureus; test: Antibacterial activity against methicillin-resistant Staphylococcus aureus at 4 hrs daily exposure for 2 days; format: functional, organism-based
[24] = test system: Staphylococcus aureus; test: Antibacterial activity against methicillin-resistant Staphylococcus aureus at 4 hrs daily exposure for 3 days; format: functional, organism-based

SMILES | MIC [1] | Activity [5] | MIC [6] | MIC [7] | MIC [8] | MIC [9] | MIC [10] | MIC [11] | MIC [12] | MIC [13] | MIC [14] | MIC [15] | Activity [21] | Activity [22] | Activity [23] | other results
CO[C@H]1/C=C/O[C@@]2(C)Oc3c(C)c(O)c4c(O)c(c(/C=N/N5CCN(C)CC5)c(O)c4c3C2=O)NC(=O)/C(C)=C\C=C\[C@H](C)[C@H](O)[C@@H](C)[C@@H](O)[C@@H](C)[C@H](OC(C)=O)[C@@H]1C [RIFAMPIN] | 128 µg/mL (≈ 156 µM) | inactive | < 0.06 µg/mL | 128 µg/mL (≈ 156 µM) | < 0.06 µg/mL | < 0.06 µg/mL | < 0.06 µg/mL | < 0.06 µg/mL | < 0.06 µg/mL | < 0.06 µg/mL | < 0.06 µg/mL | < 0.06 µg/mL | Active |  |  | MIC [2]: < 0.06 µg/mL; MIC [3]: 128 µg/mL (≈ 156 µM); MIC [4]: 128 µg/mL (≈ 156 µM); MIC [16]: 128 µg/mL (≈ 156 µM); MIC [17]: 32 µg/mL (≈ 38.9 µM); MIC [18]: 128 µg/mL (≈ 156 µM); MIC [19]: 128 µg/mL (≈ 156 µM); MIC [20]: 128 µg/mL (≈ 156 µM)
CN(C)c1ccc(O)c2c1C[C@H]1C[C@H]3[C@H](N(C)C)C(O)=C(C(N)=O)C(=O)[C@@]3(O)C(O)=C1C2=O |  |  |  |  |  |  |  |  |  |  |  |  |  | Active | Active | 
CN(C)c1cc(NC(=O)CNC(C)(C)C)c(O)c2c1C[C@H]1C[C@H]3[C@H](N(C)C)C(O)=C(C(N)=O)C(=O)[C@@]3(O)C(O)=C1C2=O |  |  |  |  |  |  |  |  |  |  |  |  |  | Active |  | Activity [24]: Active
CN[C@H](CC(C)C)C(=O)N[C@H]1C(=O)N[C@@H](CC(N)=O)C(=O)N[C@H]2C(=O)N[C@H]3C(=O)N[C@H](C(=O)N[C@H](C(=O)O)c4cc(O)cc(O)c4-c4cc3ccc4O)[C@H](O)c3ccc(c(Cl)c3)Oc3cc2cc(c3O[C@@H]2O[C@H](CO)[C@@H](O)[C@H](O)[C@H]2O[C@H]2C[C@](C)(N)[C@H](O)[C@H](C)O2)Oc2ccc(cc2Cl)[C@H]1O |  | inactive |  |  |  |  |  |  |  |  |  |  |  |  |  | 
CC(=O)NC[C@H]1CN(c2ccc(N3CCOCC3)c(F)c2)C(=O)O1 [LINEZOLID] | 8 µg/mL (≈ 23.7 µM) | inactive | 0.5 µg/mL (≈ 1.48 µM) | 0.5 µg/mL (≈ 1.48 µM) | 0.5 µg/mL (≈ 1.48 µM) | 0.25 µg/mL (≈ 0.741 µM) | 0.5 µg/mL (≈ 1.48 µM) | 0.5 µg/mL (≈ 1.48 µM) | 0.5 µg/mL (≈ 1.48 µM) | 1 µg/mL (≈ 2.96 µM) | 1 µg/mL (≈ 2.96 µM) | 0.5 µg/mL (≈ 1.48 µM) | Active |  |  | Activity [2]: Active; Activity [4]: Active; Activity [16]: Active; Activity [18]: Active; Activity [19]: Active; Activity [20]: Active
CCCCCCCCCC(=O)N[C@@H](Cc1c[nH]c2ccccc12)C(=O)N[C@H](CC(N)=O)C(=O)N[C@@H](CC(=O)O)C(=O)N[C@@H]1C(=O)NCC(=O)N[C@@H](CCCN)C(=O)N[C@@H](CC(=O)O)C(=O)N[C@H](C)C(=O)N[C@@H](CC(=O)O)C(=O)NCC(=O)N[C@H](CO)C(=O)N[C@@H]([C@H](C)CC(=O)O)C(=O)N[C@@H](CC(=O)c2ccccc2N)C(=O)O[C@@H]1C |  |  |  |  |  |  |  |  |  |  |  |  |  | Active | Active | 
